US6566368B2, “Apomorphine-containing dosage form for ameliorating male erectile dysfunction” (Pentech Pharmaceuticals, Inc., priority 1994, dated 2003)

Tested on: men with psychogenic male erectile dysfunction (MED)
Assay: Pilot Study #6, third phase: home use, reported success of intercourse (Sexual Function questionnaire)
Format: in vivo, human
Conditions: for Reported Success by Tablet Strength: home use; for Reported Success, Overall: all doses, 20/29
From the text: The third phase, a home-use phase, lasted 5 weeks. During this phase, subjects attempted coitus at least once each week after taking a single APO tablet. After each attempt the subject and their partner completed a Sexual Function questionnaire (Table XVII).
During the third phase, subjects had recorded at baseline, their satisfaction, erection, number of attempts, and successful intercourse on a VAS scale. Evaluable subjects first recorded a success rate, then completed VAS for erection results and satisfaction with intercourse following take-home treatment. Success rate was calculated for mg as well as μg/kg body weight doses (males). Several evaluations of the data were made including the male and female responses to treatments. The overall average success rate is 69% with APO treatment which is much higher than the average baseline rate 28% (Tables XXI, XXII).

## CN1CCc2cccc3c2[C@H]1Cc1ccc(O)c(O)c1-3 [apomorphine]
Female group, 4 mg
  Reported Success by Tablet Strength: 5/7 (71.4%)
Female group, 8 mg
  Reported Success by Tablet Strength: 4/7 (57.1%)
Female group, 35-50 μg/kg
  Reported Success by Apomorphine Dosage: 3/5 (60.0%)
Female group, 50-74 μg/kg
  Reported Success by Apomorphine Dosage: 9/11 (81.8%)
Female group, 50-74 μg/kg, listed as APO
  Reported Success by Apomorphine Dosage: 82%
Female group, >74 μg/kg
  Reported Success by Apomorphine Dosage: 8/13 (61.5%)
Female group
  Reported Success, Overall: (69.0%)
Male group, 4 mg
  Reported Success by Tablet Strength: 5/7 (71.4%)
Male group, 8 mg
  Reported Success by Tablet Strength: 4/7 (57.1%)
Male group, 35-50 μg/kg
  Reported Success by Apomorphine Dosage: 4/5 (80.0%)
Male group, 50-74 μg/kg
  Reported Success by Apomorphine Dosage: 8/11 (72.7%)
Male group, 50-74 μg/kg, listed as APO
  Reported Success by Apomorphine Dosage: 80%
Male group, >74 μg/kg
  Reported Success by Apomorphine Dosage: 8/13 (61.5%)
Male group
  Reported Success, Overall: (69.0%)
take-home APO treatment, average baseline rate 28%
  overall average success rate: 69%
